{"source": "patent US8710049B2", "about": "“Diaminocyclohexane compounds and uses thereof” (Bristol-Myers Squibb Company, priority 2011, dated 2014)"}
{"target": "T1, Y4 receptor (Homo sapiens, UniProt P50391)", "T1 sequence (P50391 whole entry)": "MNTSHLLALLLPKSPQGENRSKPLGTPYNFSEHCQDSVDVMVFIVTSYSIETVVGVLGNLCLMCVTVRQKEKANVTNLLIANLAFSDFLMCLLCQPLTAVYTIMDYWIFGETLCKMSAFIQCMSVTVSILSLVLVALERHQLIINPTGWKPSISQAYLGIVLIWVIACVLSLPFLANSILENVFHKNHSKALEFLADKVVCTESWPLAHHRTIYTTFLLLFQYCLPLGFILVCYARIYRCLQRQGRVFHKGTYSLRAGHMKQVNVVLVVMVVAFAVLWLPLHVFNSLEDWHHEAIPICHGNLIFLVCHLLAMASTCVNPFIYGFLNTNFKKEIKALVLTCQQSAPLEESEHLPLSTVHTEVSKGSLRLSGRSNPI", "assay": "not given", "conditions": "background statement; cited from earlier work"}
{"compound": "PYY: naturally secreted 36 amino acid, C-terminally amidated PP-fold peptide", "affinity for Y4 receptor": "nanomolar affinity"}
{"target": "T1, Y4 receptor", "assay": "NPY4 cAMP HTRF Agonist Assay", "assay_type": "cell-based", "parameters": "expressed in transfected cells", "conditions": "human Y4 stable CHO clonal cells; inhibitory cAMP assay with Forskolin and IBMX, 30 minutes at room temperature", "experimental": "NPY4 cAMP HTRF Agonist Assay\nThe functionality of the compound at Y4 receptor was analyzed using an inhibitory cAMP assay (CISBIO, HTRF cAMP kit #62AM4PEC) to measure the Gi activation by Y4 agonism.\nThe human Y4 stable CHO clonal cells were maintained in culture medium (F-12 containing 10% Fetal Bovine Serum, […] GENETICIN®, […] Zeocin). Before the experiment, 5 μL of 1 uM Forskolin (Sigma, # F6886) and 100 uM IBMX (Sigma, #15879) in PBS buffer were added into 384-well plates (PE, Proxi-plate) that were pre-dotted with […] compounds. The cells were removed from the flasks by Cellstripper, counted and adjusted to 1.0×10^6 cells/mL in PBS buffer, and added 5 μL/well (5000 cells/well) into the above 384-well plates. The cells were then covered and incubated for 30 minutes at room temperature. After incubation, 5 μL/well of D2-conjugate in HTRF lysis buffer was first added, followed by adding 5 μL/well of anti-cAMP Cryptate in HTRF lysis buffer. The plates were incubated for another 1 hour at room temperature and read on the EnVision Multilabel Plate Reader.", "units": {"EC50": "nM"}}
{"compound": "O=C(Nc1ccccc1)N[C@@H]1CCCC[C@H]1N[C@H]1CCCN(c2ccc([N+](=O)[O-])cc2)C1", "note": "[Example 1, 1-((1R,2R)-2-((S)-1-(4-Nitrophenyl)piperidin-3-ylamino)cyclohexyl)-3-phenyl urea]", "EC50": 81}
{"compound": "O=C(Nc1ccc(OC(F)(F)F)cc1)N[C@@H]1CCCC[C@H]1N[C@H]1CCCN(c2ccc([N+](=O)[O-])cc2)C1", "note": "[Example 3, 1-((1R,2R)-2-((S)-1-(4-Nitrophenyl)piperidin-3-ylamino)cyclohexyl)-3-(4-(trifluoromethoxy)phenyl)urea]", "EC50": 46}
{"compound": "O=C(Nc1ccc(OC(F)(F)F)cc1)N[C@@H]1CCCC[C@H]1N[C@H]1C[C@@H]2C[C@H]1N(c1ccc([N+](=O)[O-])cc1)C2", "note": "[Example 4, 1-((1R,2R)-2-((1R,4R,6S)-2-(4-Nitrophenyl)-2-azabicyclo[2.2.1]heptan-6-ylamino)cyclohexyl)-3-(4-(trifluoromethoxy)phenyl)urea]", "EC50": 25}
{"compound": "Cc1nnc(-c2ccc(N3CCC[C@H](N[C@@H]4CCCC[C@H]4NC(=O)OCc4ccccc4)C3)cc2)o1", "note": "[Example 7, Benzyl (1R,2R)-2-((S)-1-(4-(5-methyl-1,3,4-oxadiazol-2-yl)phenyl)piperidin-3-ylamino)cyclohexylcarbamate]", "EC50": 72}
{"compound": "Cn1cc(CC(=O)N[C@@H]2CCCC[C@H]2N[C@H]2CCCN(c3ccc(C#N)cc3)C2)c2ccccc21", "note": "[Example 10, N-((1R,2R)-2-((S)-1-(4-Cyanophenyl)piperidin-3-ylamino)cyclohexyl)-2-(1-methyl-1H-indol-3-yl)acetamide]", "EC50": 330}
{"compound": "N#Cc1ccc(N2CCC[C@H](N[C@@H]3CCCC[C@H]3NC(=O)OCc3ccc(OC(F)(F)F)cc3)C2)cc1", "note": "[Example 16, 4-(Trifluoromethoxy)benzyl (1R,2R)-2-((S)-1-(4-cyanophenyl)piperidin-3-ylamino)cyclohexylcarbamate]", "EC50": 72}
{"compound": "CCOC(=O)c1ccc(N2CC[C@H](N[C@@H]3CCCC[C@H]3NC(=O)OCc3ccccc3)C2)cc1", "note": "[Example 32, Ethyl 4-((S)-3-((1R,2R)-2-(benzyloxycarbonylamino)cyclohexylamino)pyrrolidin-1-yl)benzoate]", "EC50": 540}
{"compound": "COc1ccc(COC(=O)N[C@@H]2CCCC[C@H]2N[C@H]2CCCN(c3ccc(C#N)cc3)C2)cc1", "note": "[Example 34, 4-Methoxybenzyl (1R,2R)-2-((S)-1-(4-cyanophenyl)piperidin-3-ylamino)cyclohexylcarbamate]", "EC50": 575}
{"compound": "N#Cc1ccc(N2CCC[C@H](N[C@@H]3CCCC[C@H]3NC(=O)Nc3cccc(O)c3)C2)cc1", "note": "[Example 36, 1-((1R,2R)-2-((S)-1-(4-Cyanophenyl)piperidin-3-ylamino)cyclohexyl)-3-(3-hydroxyphenyl)urea]", "EC50": 610}
{"compound": "O=C(N[C@@H]1CCCC[C@H]1N[C@H]1CCCN(c2ccc(-c3nc4ccccc4o3)cc2)C1)OCc1ccccc1", "note": "[Example 43, Benzyl (1R,2R)-2-((S)-1-(4-(benzo[d]oxazol-2-yl)phenyl)piperidin-3-ylamino)cyclohexylcarbamate]", "EC50": 1400}
{"compound": "N#Cc1cc(N2CCC[C@H](N[C@@H]3CCCC[C@H]3NC(=O)Nc3ccccc3)C2)ccn1", "note": "[Example 45, 1-((1R,2R)-2-((S)-1-(2-Cyanopyridin-4-yl)piperidin-3-ylamino)cyclohexyl)-3-phenylurea]", "EC50": 1460}
{"compound": "O=C(Nc1ccccc1)N[C@@H]1CCCC[C@H]1N[C@H]1CCCN(c2ccc([N+](=O)[O-])cc2)CC1", "note": "[Example 52, 1-((1R,2R)-2-((S)-1-(4-Nitrophenyl)azepan-4-ylamino)cyclohexyl)-3-phenylurea]", "EC50": 2890}
{"compound": "N#Cc1ccc(N2CCC[C@H](N[C@@H]3CCCC[C@H]3NC(=O)Nc3ccc(C(F)(F)F)cc3)C2)cc1", "note": "[Example 56, 1-((1R,2R)-2-((S)-1-(4-Cyanophenyl)piperidin-3-ylamino)cyclohexyl)-3-(4-(trifluoromethyl)phenyl)urea]", "EC50": 3620}
{"compound": "C[C@]1(N[C@@H]2CCCC[C@H]2NC(=O)OCc2ccccc2)CCCN(c2ccc([N+](=O)[O-])cc2)C1", "note": "[Example 58, Benzyl (1R,2R)-2-((S)-3-methyl-1-(4-nitrophenyl)piperidin-3-ylamino)cyclohexylcarbamate]", "EC50": 10}
{"compound": "Cc1ccc(COC(=O)N[C@@H]2CCCC[C@H]2N[C@H]2CCCN(c3ccc(C(F)(F)F)cc3)C2)cc1", "note": "[Example 63]", "EC50": 515}
{"compound": "O=C(Nc1cc(C(F)(F)F)cc(C(F)(F)F)c1)N[C@@H]1CCCC[C@H]1N[C@H]1CCCN(c2ccc(C(F)(F)F)cc2)C1", "note": "[Example 89]", "EC50": 2340}
